Assay results from patent US10336732B2, “1-heterocyclyl isochromanyl compounds and analogs for treating CNS disorders” (Sunovion Pharmaceuticals Inc., priority 2015, dated 2019).

Target: T1, 5-HT transporter (Homo sapiens, UniProt P31645)
T1 construct: expressed in transfected cells; host or cells: CHO cells
Test: In vitro radioligand binding assay, 5-HT transporter, [3H]imipramine
Conditions: human recombinant (CHO cells)
Method: Certain compounds were tested by in vitro binding assays using standard procedures. […] These receptors and assays are well known to those skilled in the art, as exemplified by the following: Abramovitz, M. et al. (2000), Biochem. Biophys. Acta., 1483: 285-293 (EP4, IP (PGI2)); Aharony, D. et al. (1993), Mol. Pharmacol., 44: 356-363 (NK2); Ardati, A. et al. (1997), Mol. Pharmacol., 51: 816-824 (NOP (ORL1)); Bignon, E. et al. (1999), J. Pharmacol. Exp. Ther. 289: 742-751 (CCK1 (CCKA)); Bloomquist, B. T. et al. (1998), Biochem. Biophys. Res. Commun., 243: 474-479 (GAL2); Brockhaus, M. et al. (1990), Proc. Natl. Acad. Sci. U.S.A., 87: 3127-3131 (TNF-α); Brown, G. B. (1986), J. Neurosci., 6: 2064-2070 (Na+ channel (site 2)); Buchan, K. W. et al. (1994), Brit. J. Pharmacol., 112: 1251-1257 (ETA); Cesura, A. M. et al. (1990), Mol. Pharmacol., 37: 358-366 (MAO-A); Choi, D. S. et al. (1994), FEBS Lett., 352: 393-399 (5-HT2B); Clark, A. F. et al. (1996), Invest. Ophtalmol. Vis. […]

T1 sequence (P31645 whole entry): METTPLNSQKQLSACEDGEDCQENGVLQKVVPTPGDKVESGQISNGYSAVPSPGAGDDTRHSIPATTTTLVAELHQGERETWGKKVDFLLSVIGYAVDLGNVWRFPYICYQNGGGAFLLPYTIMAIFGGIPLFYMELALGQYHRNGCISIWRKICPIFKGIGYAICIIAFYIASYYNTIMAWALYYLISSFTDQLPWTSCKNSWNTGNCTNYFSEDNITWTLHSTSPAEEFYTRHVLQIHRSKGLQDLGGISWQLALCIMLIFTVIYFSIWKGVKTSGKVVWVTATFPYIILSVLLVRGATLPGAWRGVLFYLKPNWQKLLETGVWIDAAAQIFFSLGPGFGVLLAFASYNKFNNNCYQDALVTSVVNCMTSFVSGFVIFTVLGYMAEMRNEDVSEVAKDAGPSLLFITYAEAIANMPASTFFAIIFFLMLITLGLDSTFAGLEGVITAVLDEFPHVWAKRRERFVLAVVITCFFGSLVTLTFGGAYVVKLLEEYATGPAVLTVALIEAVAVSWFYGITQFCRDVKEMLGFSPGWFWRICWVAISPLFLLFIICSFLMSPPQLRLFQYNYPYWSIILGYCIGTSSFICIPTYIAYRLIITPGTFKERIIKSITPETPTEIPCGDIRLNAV

In the case of Fc1ccc2c(c1)CCO[C@H]2[C@@H]1CCN1 [Compound I-90, (S)-2-((R)-6-fluoroisochroman-1-yl)azetidine], the “Sert percent inhibition of specific binding” value is reported as 80%.
